# Source: US20240325557A1, “TREATMENT OF CANCER” (INNATE PHARMA, priority 2020, published 2024)
# How the values were obtained:
# [1] = failing prior chemotherapy; cited from earlier work
# [2] = 349 patients; cited from earlier work
# [3] = target: T1, Hu-Nectin4 IgC1C2-V5 (modified Nectin-4 lacking the Ig-like V domain, C1C2 construct) (Homo sapiens, UniProt Q96NY8); experiment: Flow cytometry binding to cells expressing the Nectin-4 C1C2 construct
# T1 construct: expressed in transfected cells; host or cells: CHO
# T1 sequence (Q96NY8 148-510): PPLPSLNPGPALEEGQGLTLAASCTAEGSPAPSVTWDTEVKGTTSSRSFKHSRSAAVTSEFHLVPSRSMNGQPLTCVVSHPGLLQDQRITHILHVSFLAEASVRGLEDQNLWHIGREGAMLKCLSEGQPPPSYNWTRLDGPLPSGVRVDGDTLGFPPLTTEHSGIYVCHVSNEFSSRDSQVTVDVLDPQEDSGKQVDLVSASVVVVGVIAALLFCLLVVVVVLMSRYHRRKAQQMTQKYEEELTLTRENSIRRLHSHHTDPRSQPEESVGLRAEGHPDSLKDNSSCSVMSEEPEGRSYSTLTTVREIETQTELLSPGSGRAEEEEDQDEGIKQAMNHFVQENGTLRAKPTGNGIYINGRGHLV
# Method: (§1) The characterization of the binding of the antibodies on Nectin-4 domains was performed by flow cytometry using cells made to express the wild-type human Nectin-4 protein and cells made to express a modified Nectin-4 having the Ig-like C2 type 1 and the Ig-like C2 type 2 domains and lacking the Ig-like V domain (the C1C2 construct). The latter protein additionally bears a V5 tag for flow cytometry cell sorting, and cells were used as Nectin4-C1C2-V5 sorted cells.
# Wild-type Nectin-4 (the CI.3C8 cell line), a C2 construct (containing the Ig-like C2 type 2 domain and lacking both the V and the C1 domains) and the C1C2 construct allow the determination of whether test antibodies bind to the V or different C domains. Briefly, nucleic acid sequences encoding different human Nectin-4 domains were amplified by PCR. The PCR products were inserted into an expression vector at appropriate restriction sites. A leader peptide, and for C1C2 and C2 an N-terminal V5 tag having the amino acid sequence […] (SEQ ID NO: 41), were added, and expression at the surface of cells was confirmed by flow cytometry. The amino acid sequences of the resulting different human Nectin-4 domain fragment-containing proteins are shown below (V5 tag underlined). The vectors were then transfected into the CHO cell line to obtain stable clones expressing the different Nectin-4 domain proteins at the cell surface.
# wild-type human Nectin-4 = target: T2, wild-type human Nectin-4 (Homo sapiens, UniProt Q96NY8); experiment: Flow cytometry binding to wild-type Nectin-4 expressing CHO cells
# T2 construct: expressed in transfected cells; host or cells: CHO (huNectin4 Cl.3C8)
# T2 sequence (Q96NY8 32-510): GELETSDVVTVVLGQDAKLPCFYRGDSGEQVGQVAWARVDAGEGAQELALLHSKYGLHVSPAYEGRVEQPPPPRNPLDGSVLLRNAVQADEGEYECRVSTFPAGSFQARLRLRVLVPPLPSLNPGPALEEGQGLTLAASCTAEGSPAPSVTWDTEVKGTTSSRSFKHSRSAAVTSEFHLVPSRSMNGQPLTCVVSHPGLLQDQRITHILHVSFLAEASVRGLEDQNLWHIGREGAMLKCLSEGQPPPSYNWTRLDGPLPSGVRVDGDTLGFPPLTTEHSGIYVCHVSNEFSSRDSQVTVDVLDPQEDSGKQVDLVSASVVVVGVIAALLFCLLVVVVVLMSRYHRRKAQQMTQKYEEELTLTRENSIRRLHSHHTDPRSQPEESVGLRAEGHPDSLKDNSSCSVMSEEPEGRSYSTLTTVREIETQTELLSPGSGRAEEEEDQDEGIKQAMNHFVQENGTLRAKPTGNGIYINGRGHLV
# Method: plates of hybridoma supernatants were tested for binding on the wild-type human Nectin-4 expressing CHO cell line by flow cytometry. Briefly, Nectin-4 expressing cells were used at 0.2×10^6 cells by well in a buffer of PBS, BSA 0.5%, EDTA 5 mM. The first antibody was incubated with cells for 1h at +5±3° C. in 50 μL of supernatant. […] Acquisition HTFC flow cytometer (Intellicyt), with data analysis on ForeCyt™ software.
# as §1
# Wild-type Nectin-4 (the CI.3C8 cell line), a C2 construct (containing the Ig-like C2 type 2 domain and lacking both the V and the C1 domains) and the C1C2 construct allow the determination of whether test antibodies bind to the V or different C domains. Briefly, nucleic acid sequences encoding different human Nectin-4 domains were amplified by PCR. The PCR products were inserted into an expression vector at appropriate restriction sites. […]
# SUM190 cells = experiment: In vivo efficacy of ADCs, SUM190 mouse model of human breast cancer (Example 9); details: single i.v. injection 3 mg/kg; antibodies conjugated to ggfg-Dxd, DAR=8
# Method: When tumors reached a volume between 195 and 250 mm3, mice were randomized into groups of 9 mice for intravenous treatment with a single injection of 3 mg/kg of camptothecin ADCs. Tumor growth were followed twice a week. Kaplan Meier survival curves were established by using GraphPad Prism V7 software according to the following criteria: When the tumor volume reached 1500 mm3, mice were euthanized and considered dead on the day of sacrifice (D).
# rat Nectin-4 = experiment: Flow cytometry species cross-reactivity on CHO cells; type: binding
# Method: Anti-Nectin-4 antibodies were tested by flow cytometry for binding to different CHO cell lines made to express respectively the mouse, cynomolgus and rat Nectin-4 protein (including an N-terminal V5 tag not shown in the sequences below).
# [4] = target: T3, wild-type human Nectin-4 protein (huNectin4-his-BirA) (Homo sapiens, UniProt Q96NY8); experiment: Affinity determination by SPR (Biacore T200); type: binding; details: 25° C.
# T3 sequence (Q96NY8 with tags, fused parts or gaps): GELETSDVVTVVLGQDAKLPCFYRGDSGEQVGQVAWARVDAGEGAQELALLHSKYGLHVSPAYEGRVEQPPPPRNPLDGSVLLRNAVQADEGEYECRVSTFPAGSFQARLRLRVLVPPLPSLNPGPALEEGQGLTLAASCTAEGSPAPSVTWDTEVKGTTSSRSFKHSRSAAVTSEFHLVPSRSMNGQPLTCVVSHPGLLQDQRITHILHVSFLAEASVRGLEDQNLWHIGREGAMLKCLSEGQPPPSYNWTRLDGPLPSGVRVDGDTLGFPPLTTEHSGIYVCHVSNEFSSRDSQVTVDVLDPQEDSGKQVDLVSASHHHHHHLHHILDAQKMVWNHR
# Method: Antibodies were tested for binding affinity to the wild-type human Nectin-4 protein by SPR (Surface Plasmon Resonance) methods. Measurements were performed on a Biacore T200 apparatus (Biacore GE Healthcare) at 25° C. Sensorgrams were analyzed with Biacore T100 Evaluation software. A CMR Sensor Chip with immobilized Protein A at about 600 RU was used. Anti-Nectin-4 antibodies were captured onto the Protein-A chip (antibodies diluted to 1 μg/ml in HBS-EP+1× buffer and injected over 120s at 40 μL/min). Recombinant human monomeric huNectin4-his-BirA protein was injected at different concentrations in a range from 100 nM to 1.56 nM over captured antibodies (HuNectin4-His-BirA diluted in HBS-EP+1× in ½ dilutions, injected over 120s at 40 μl/min) and allowed to dissociate for 600s. The chip was regenerated with NaOh 10 mM 2× for 30s at 40 μl/min. The sensorgram sets were fitted using the 1:1 kinetic binding model or two state reaction model, as a function of the profile of the curves.
# SUM185 cells = experiment: In vitro ADC cytotoxicity, 5 days, CTG; type: cell-based, human; details: model of anti-HER2 resistance
# Method: Luminescence vs. Ab concentration was plotted on graph.
# For each ADC, a concentration range of ADC was incubated with nectin-4-expressing cells. After incubation, CTG substrate was added at 1/1 ratio and the luminescent signal was read with a plate reader (Enspire). It allowed quantifying the ATP present (indicator of metabolically active cells) which was proportional to cell viability.
# This setting is used as a model of anti-HER2 resistance.
# For each ADC, a concentration range of ADC was incubated with nectin-4-expressing cells. After incubation, CTG substrate was added at 1:1 ratio and the luminescent signal was read with a plate reader (Enspire), allowing quantification of the ATP present (indicator of metabolically active cells) which was proportional to cell viability.
# [5] = tested on: MC-38 cells that endogenously express MDR1 P-glycoprotein engineered to express Nectin-4; experiment: In vitro efficacy of ADCs in Pgp-expressing cancer model (CTG, five days); type: cell-based; details: presence or absence of cyclosporin A (5 μM); 150 nM ADC, normalized to control antibody
# Method: MC-38 cells that endogenously express MDR1 P-glycoprotein (Pgp) were engineered to express Nectin-4 and cultured in DMEM+10% FBS. Cells were either treated with vehicle (DSMO) or with cyclosporin A (5 μM, stock solution in DMSO) known to act as an inhibitor of Pgp, in presence of ADCs.
# The ADCs and the equivalent isotype control ADCs were used at dose range from 150 to 2.3 10^−3 nM. After five days of co-incubation with cells, cell viability was measured by addition of Cell Titer Glo™ (CTG) substrate. Luminescence vs. Ab concentration was plotted.
# [6] = UC patients; cited from earlier work
# Sequence of rat Nectin-4 (as listed by the source): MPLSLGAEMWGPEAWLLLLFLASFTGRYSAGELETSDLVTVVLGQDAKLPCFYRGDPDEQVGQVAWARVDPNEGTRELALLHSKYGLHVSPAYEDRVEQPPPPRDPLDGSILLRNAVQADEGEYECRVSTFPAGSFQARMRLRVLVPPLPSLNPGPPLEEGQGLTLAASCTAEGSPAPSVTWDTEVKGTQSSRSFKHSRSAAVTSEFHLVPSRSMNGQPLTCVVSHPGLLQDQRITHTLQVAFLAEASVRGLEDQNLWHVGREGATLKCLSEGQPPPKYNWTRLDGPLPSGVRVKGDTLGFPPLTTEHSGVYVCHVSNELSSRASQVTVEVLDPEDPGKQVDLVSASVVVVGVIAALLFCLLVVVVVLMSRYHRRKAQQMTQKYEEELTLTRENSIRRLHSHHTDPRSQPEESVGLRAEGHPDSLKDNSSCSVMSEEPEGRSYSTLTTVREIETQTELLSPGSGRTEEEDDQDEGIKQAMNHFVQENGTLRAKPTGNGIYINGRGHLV
molecule,measurement,setting,value
CC[C@@]1(O)C(=O)OCc2c1cc1n(c2=O)Cc2cc3c([N+](=O)[O-])cccc3nc2-1 [RFS2000],activity in patients,[1],did not exert significant activity
CC[C@@]1(O)C(=O)OCc2c1cc1n(c2=O)Cc2c-1nc1cc(F)c(C)c3c1c2[C@@H](N)CC3 [exatecan],efficacy in addition to gemcitabine versus gemcitabine alone,[2],not superior in efficacy to gemcitabine alone
Enfortumab [reference compound],binding to the C1C2 construct,[3],lost all binding to the C1C2 construct
same,binding to whole (wild-type) human Nectin-4 protein,wild-type human Nectin-4,bound to the whole Nectin-4 protein
same,control of tumor growth,SUM190 cells,no longer showed the ability to control tumor growth
same,binding to rat Nectin-4 expressing CHO cells,rat Nectin-4,bind to rat Nectin-4
same,Kd,[4],13.7 nM
same,ka,[4],340000 M⁻¹ s⁻¹
same,kd,[4],0.0047 s⁻¹
PADCEV,killing of SUM185 cells (cell viability),SUM185 cells,able to kill the SUM185 more efficiently than ENHERTU
same,influence of Pgp on anti-tumor activity,[5],negatively affected by Pgp
same,CR (complete response rate),[6],12%
same,ORR (objective response rate),[6],44%
same,discontinuation due to clinical symptoms,[6],5%
same,discontinuation due to progressive disease as assessed by RECIST,[6],48%
same,"patients that discontinued experienced adverse events, notably neuropathy",[6],18%
